Counter-ions that a name gives are not always drawn.
Columns and labels:
[1] = test system: plaque forming cells in the spleen of mice; test: TEST 2 effect on plaque forming cells in the spleen of mice inoculated with sheep red blood cells, Balb/c (Run 1); type: in vivo, mouse; details: 4 weeks, intravascular sheep cells, four consecutive days
Method: (§1) Mice were inoculated by intravascular or intraperitoneal administration of 1×10^8 sheep cells per animal. Each group consisted of five mice. The test drug was administered orally or intraperitoneally for four consecutive days from the day when the sheep cells were administered.

[2] = test system: plaque forming cells in the spleen of mice; test: TEST 2 effect on plaque forming cells in the spleen of mice inoculated with sheep red blood cells, C3H/He (Run 2); type: in vivo, mouse; details: 7 weeks, I.P. sheep cells, four consecutive days
Method: as §1

delayed hypersensitibity = test: TEST 3 effects on delayed hypersensitivity (sheep red blood cell paw edema); type: in vivo, mice, ddY strain; details: four consecutive days
Method: Into the palms of the right rear limbs of mice (ddY strain, weighing 25-30 g) was injected 40 μl of sheep red blood cells the concentration of which was adjusted to 1×10^7 /40 μl. The test drug was administered intraperitoneally or orally for four consecutive days inclusive of the day of sheep red blood cell administration. Three days after the day of sheep red blood cell administration, 40 μl of sheep red blood cells which were adjusted to have a concentration of 5×10^8 /40 μl were administered into the palms of the left rear limbs. After 24 hours, the thickness of the palms of the right and left rear limbs was measured. The edema was expressed as the difference in thickness between the palms of the left and right rear limbs. The results are shown in FIG. 3, in which the edema in the medicated group is expressed as percent control which means the percentage of the edema found in the group in which physiological saline is applied (control group).

ddY mice = test: TEST 1 acute toxicity in mice; type: in vivo
Description: The test drug was suspended in aqueous 50% solution of Tween 80 and administered to ddY mice weighing 20-25 g orally or intraperitoneally in doses indicated in Table 1 below.

[3] = test system: six strains as stipulated in the Labor Safety and Hygiene Law in Japan; test: mutagenicity test using six strains; type: cell-based; details: ~100 μg/plate
rat adjuvant arthritis = test: TEST 4 effect on rat adjuvant arthritis; type: in vivo, Sprague-Dawley rats; details: 27 consecutive days
Method: The test animals were Sprague-Dawley rats at the age of 8 weeks and each group consisted of ten animals. An intracutaneous injection of 0.05 ml of a suspension of 0.5 mg of Mycobacterium butyricum in liquid paraffin was applied to each animal at the paw of the right rear limb. For 27 consecutive days from the day before the adjuvant injection, Compound (2) was orally administered at doses of 3, 10 and 30 mg/kg with measurement of the volume of the paw.

[4] = 1,000 mg/kg IP, during 7 days after administration
[5] = 5,000 mg/kg PO, during 7 days after administration

Molecule | % Control (edema, percentage of that in physiological saline control group) (delayed hypersensitibity; 30 mg/kg I.P.) [%] | % Control (edema, percentage of that in physiological saline control group) (delayed hypersensitibity; 100 mg/kg P.O.) [%] | % Control (edema, percentage of that in physiological saline control group) (delayed hypersensitibity; 3 mg/kg I.P.) [%] | % Control (edema, percentage of that in physiological saline control group) (delayed hypersensitibity; 10 mg/kg I.P.) [%] | % Control (edema, percentage of that in physiological saline control group) (delayed hypersensitibity; 30 mg/kg P.O.) [%] | % Control (edema, percentage of that in physiological saline control group) (delayed hypersensitibity; 300 mg/kg P.O.) [%] | also measured
Cn1cnc([N+](=O)[O-])c1Sc1ncnc2nc[nH]c12 [Azathioprine, reference compound] | 61.0 | 58.2 |  |  |  |  | PFC × 2,500/spleen (Mean ± standard error) ([1]; 50 mg/kg P.O.): 22.8 ± 2.40 PFC × 2,500/spleen; PFC × 2,500/spleen (Mean ± standard error) ([2]; 50 mg/kg P.O.): 46.7 ± 1.2 PFC × 2,500/spleen
CCOC(=O)Cc1ccc(NC(=O)CC[C@@H](N)C(=O)O)cc1 [Compound (12), N-(4-Ethoxycarbonylmethylphenyl)-D-glutamine] | 89.1 | 81.7 | 76.1 | 107.9 | 85.4 | 80.7 | 
CCOC(=O)C(CC)c1ccc(NC(=O)CC[C@H](N)C(=O)O)cc1 (stereo partly drawn) [Compound (13), N-[4-(1-Ethoxycarbonyl-n-propyl)phenyl]-L-glutamine] | 64.2 | 87.4 | 82.1 | 70.5 | 89.6 | 75.7 | No. of dead mice/No. of test animals (ddY mice; mouse, in vivo): 0/5
CCOC(=O)C(C)(C)c1ccc(NC(=O)CC[C@H](N)C(=O)O)cc1 [Compound (14), N-[4-(1-Ethoxycarbonyl-1-methylethyl)phenyl]-L-glutamine] | 71.9 |  | 77.3 | 72.6 |  |  | 
CCOC(=O)C(C)c1ccc(NC(=O)CC[C@H](N)C(=O)O)cc1 (stereo partly drawn) [Compound (15), N-[4-(1-Ethoxycarbonylethyl)phenyl]-L-glutamine] | 67.6 |  | 78.0 | 62.6 |  |  | 
CCOC(=O)Cc1ccc(NC(=O)CC[C@H](N)C(=O)O)cc1 [Hydrochloride Compound (2)] | 90.0 | 75.7 | 79.6 | 90.7 | 81.8 | 67.2 | 
N-(2-Ethoxycarbonylmethylphenyl)-L-glutamine [Compound (7)] | 86.8 | 84.8 | 92.4 | 91.1 | 92.8 | 82.3 | 
N-(3-Ethoxycarbonylmethylphenyl)-L-glutamine [Compound (6)] | 84.3 | 82.8 | 94.6 | 83.2 | 81.1 | 83.1 | 
N-(4-Carboxymethylphenyl)-L-glutamine [Compound (2)] | 62.3 | 66.2 | 69.7 | 65.9 | 78.8 | 65.0 | PFC × 2,500/spleen (Mean ± standard error) ([1]; 30 mg/kg P.O.): 99.0 ± 4.60 PFC × 2,500/spleen; PFC × 2,500/spleen (Mean ± standard error) ([1]; 100 mg/kg P.O.): 91.8 ± 18.6 PFC × 2,500/spleen; PFC × 2,500/spleen (Mean ± standard error) ([1]; 300 mg/kg P.O.): 73.4 ± 12.7 PFC × 2,500/spleen; PFC × 2,500/spleen (Mean ± standard error) ([2]; 30 mg/kg P.O.): 113.0 ± 20.4 PFC × 2,500/spleen; PFC × 2,500/spleen (Mean ± standard error) ([2]; 100 mg/kg P.O.): 160.0 ± 20.6 PFC × 2,500/spleen; PFC × 2,500/spleen (Mean ± standard error) ([2]; 300 mg/kg P.O.): 152.4 ± 11.4 PFC × 2,500/spleen; mutagenicity [3]: negative in mutagenicity; No. of dead mice/No. of test animals (ddY mice; [4]): 0/5; No. of dead mice/No. of test animals (ddY mice; [5]): 0/5; action on secondary inflammations (rat adjuvant arthritis; 3, 10 and 30 mg/kg orally): exerted an inhibitory action on these secondary inflammations in every dose; dose dependency of action on secondary inflammations (rat adjuvant arthritis; 3, 10 and 30 mg/kg orally): any definite dose dependency was not appreciated; decrease in body weight accompanying secondary inflammations (rat adjuvant arthritis; orally): an improving tendency; inhibitory action on primary inflammations caused by direct reaction of the adjuvant (rat adjuvant arthritis; orally): very slight
N-(4-Ethoxycarbonylmethylphenyl)-L-glutamine [Compound (1)] | 91.7 | 76.4 | 85.2 | 78.2 | 85.7 | 74.5 | No. of dead mice/No. of test animals (ddY mice; [4]): 0/5; No. of dead mice/No. of test animals (ddY mice; [5]): 0/5
N-(4-ethoxycarbonylmethylphenyl)-L-glutamine hydrochloride [Compound (11)] | 84.1 | 80.8 | 77.7 | 67.3 | 89.8 | 83.7 | 
N-(4-n-Butyloxycarbonylmethylphenyl)-L-glutamine [Compound (5)] | 72.2 | 84.7 | 91.6 | 95.7 | 94.5 | 82.2 | 
N-(4-n-Propyloxycarbonylmethylphenyl)-L-glutamine [Compound (4)] | 91.7 | 91.9 | 70.4 | 80.2 | 91.7 | 79.6 | 
N-[4-(2-Ethoxycarbonylethyl)phenyl]-L-glutamine [Compound (8)] | 81.0 | 80.6 | 76.2 | 76.7 | 85.0 | 92.3 | 
N-[4-(2-Ethoxycarbonylvinyl)phenyl]-L-glutamine [Compound (10)] | 85.8 | 109.9 | 100 | 101 | 81.3 | 82.6 | 
N-[4-(3-Ethoxycarbonyl-n-propyl)phenyl]-L-glutamine [Compound (9)] | 100.6 | 96.7 | 91.3 | 80.2 | 85.3 | 88.9 | 

— US4439448A, “Glutamine derivatives” (Mitsubishi Chemical Industries Ltd., priority 1980, dated 1984)
